# Measured values: PMC4102551, “Screening and Characterisation of Antimicrobial Properties of Semisynthetic Betulin Derivatives” (PLoS ONE, 2014)
# “And” between values parts separate entries of the source, which are not always exact repeats. Equal entries are not always repeated.
# Key:
# P. aeruginosa ATCC 27853 = assay: Broth microdilution assay, P. aeruginosa; type: cell-based, Pseudomonas aeruginosa; details: 50 µM, 24 h, inhibition of growth, mean ± SD
# Experimental: (§1) Clinically used antimicrobial agents were selected based on international guidelines for antimicrobial testing and were utilised as reference compounds in the antimicrobial assays. The compounds were purchased from Sigma, Fluka and ICN Biomedicals. Stock solutions of the reference compounds were prepared either in double distilled sterile MilliQ water or in DMSO. Water solutions were sterilised through a 0.22 µm filter (VWR International). […] During the primary screening, these reference compounds were used as positive controls at the determined MIC on every plate.
# (§2) Gram-negative strains Escherichia coli (ATCC 25922), Enterobacter aerogenes (ATCC 13048) and Pseudomonas aeruginosa (ATCC 27853), Gram-positive strains Staphylococcus aureus (ATCC 25923) and Enterococcus faecalis (ATCC 29212), and fungal strain Candida albicans (ATCC 90028) were obtained from Microbiologics Inc., and used for the antimicrobial screening. Strains were selected according to the guidelines set for clinical laboratories by Clinical and Laboratory Standards Institute [CLSI, formerly National Committee on Clinical Laboratory Standards [22]] and the European Committee on Antimicrobial Susceptibility Testing (EUCAST). Bacterial strains were grown on Mueller Hinton II Agar (MHA) (BBL, BD) and Mueller Hinton II broth (MHB) (BBL, BD), whereas Candida was initiated on Sabouraud Dextrose Agar (SDA) (Difco, BD) plates. Media were prepared into MilliQ water according to manufacturer’s instruction and autoclaved at 121°C for 15 min. Bacteria were plated on MHA plates and incubated at 37°C for 16–18 h. Bacterial suspension for the assays was prepared by subculturing the bacteria into MHB and by incubating at 37°C for 16–20 h at 110 rpm prior to the assay. Candida strain was grown on SDA plates at 27°C for 16–18 h and suspended into sterile 0.9% saline for the assay.
# (§3) Antimicrobial screening assays were performed by broth microdilution method following the guidelines of CLSI and EUCAST. Bacterial suspensions were prepared as mentioned earlier and diluted with MHB to obtain a final inoculum of 5×10^5 colony-forming units (cfu)/mL in the assay for all the bacteria (based on OD620 values previously calibrated against plate counts). Candida suspension was prepared into sterile 0.9% saline solution as stated earlier. […] Assays were carried out in clear 96-well microtitre plates and initiated by dispensing an equal volume of microbial suspension and sample solution diluted into the assay medium into the wells. The plates were incubated for 24 h at 37°C (for Candida the incubation was at 35°C for 48 h) with agitation. Absorbance was measured at 620 nm with Victor plate reader (Wallac 1420, Perkin Elmer) at 0, 4 and 24 h with the bacteria, and at 0, 24 and 48 h with Candida. The antimicrobial activity of the samples was calculated from the absorbance values by comparing to the controls, and expressed as a percentage inhibition of growth. All the betulin derivatives were first assayed at the single concentration of 50 µM (two separate experiments, each with three replicates). […] The MIC90 value was expressed as the lowest concentration of compound that inhibited the microbial growth by >90%. The MIC90 results are means of three replicates from two separate experiments.
# Huh-7 cells = assay: in vitro; type: cell-based, human; details: 50 µM, 24 h exposure, ATP content, 5% FBS
# Experimental: Huh-7 cells (derived from human hepatocellular carcinoma) were obtained as a gift from Prof. Ralf Bartenschlager (University of Heidelberg, Germany) and used for assessing the cytotoxicity against mammalian cells. HL cells (a heteroploid cell line used for propagating respiratory viruses) were used as a host cell line in the host-pathogen co-culture assay. […] Both cell lines were cultured at 37°C, 5% CO2 and 95% humidity.
# The effect of the betulin derivatives on metabolic activity of Huh-7 cells was evaluated by measuring the intracellular ATP content of the cells after 24 h exposure to the compounds. In brief, cells were seeded at 20000 cells/well on white-walled microplates (PerkinElmer) and incubated at 37°C, 5% CO2 and 95% humidity. After culturing the cells overnight, the medium was replaced with the assay media (5% FBS) containing the sample and the cells were incubated for 24 h. Polymyxin B sulphate (15000 IU/mL) was used as a positive control. Following the incubation period, Promega’s CellTiter-Glo Cell Viability Assay was used to determine the intracellular ATP levels according to the manufacturer’s instructions. Cells were washed with 100 µL 6.7 mM PBS, pH 7.4 and 50 µL of fresh assay media and 50 µL of the CellTiter-Glo reagent were added into the wells. After 2 min shaking, followed by 10 min incubation at RT, luminometric signal was measured using Varioskan Flash plate reader (Thermo Fisher Scientific).
# E. faecalis ATCC 29212 = assay: Broth microdilution assay, E. faecalis; type: cell-based, Enterococcus faecalis; details: 50 µM, 24 h, inhibition of growth, mean ± SD
# Experimental: as §1, §2, §3
# S. aureus ATCC 25923 = assay: Broth microdilution assay, S. aureus; type: cell-based, Staphylococcus aureus; details: 50 µM, 24 h, inhibition of growth, mean ± SD
# Experimental: as §1, §2, §3
# E. aerogenes ATCC 13048 = assay: Broth microdilution assay, E. aerogenes; type: cell-based, Enterobacter aerogenes; details: 50 µM, 24 h, inhibition of growth, mean ± SD
# Experimental: as §1, §2, §3
# C. albicans ATCC 90028 = assay: Broth microdilution assay, C. albicans; type: cell-based, Candida albicans; details: 50 µM, 48 h at 35°C, inhibition of growth, mean ± SD
# Experimental: as §1, §2, §3
# E. coli ATCC 25922 = assay: Broth microdilution assay, E. coli; type: cell-based, Escherichia coli; details: 50 µM, 24 h, inhibition of growth, mean ± SD
# Experimental: as §1, §2, §3
Structure (SMILES),Inhibitory effect (%) P. aeruginosa ATCC 27853 (P. aeruginosa ATCC 27853) [%],Cytotoxicity (%) Huh-7 cells (Huh-7 cells) [%],Inhibitory effect (%) E. faecalis ATCC 29212 (E. faecalis ATCC 29212),Inhibitory effect (%) S. aureus ATCC 25923 (S. aureus ATCC 25923) [%],Inhibitory effect (%) E. aerogenes ATCC 13048 (E. aerogenes ATCC 13048) [%],Inhibitory effect (%) C. albicans ATCC 90028 (C. albicans ATCC 90028) [%],Inhibitory effect (%) E. coli ATCC 25922 (E. coli ATCC 25922) [%]
C=C(C)[C@@H]1CC[C@]2(C#N)CC[C@]3(C)[C@H](CC[C@@H]4[C@@]5(C)CC[C@H](OC(C)=O)C(C)(C)[C@@H]5CC[C@]43C)[C@@H]12 [Compound 33],3.6±3.9,21.6±17.0,49% and 49.2±2.2%,20.5±52.1,11.4±4.2,-51.2±39.1,-4.6±3.3
COc1cccc(-n2c(=O)n3n(c2=O)C2(C(C)C)CCC4(COC(C)=O)CCC5(C)C(=C42)C3CC2C3(C)CCC(OC(C)=O)C(C)(C)C3CCC25C)c1 (stereo not shown) [Compound 34],0.6±2.5,8.5±2.0,68.4±3.0%,3.1±2.0,13.8±4.3,-1.1±3.5,1.7±4.2
CC(=O)OCC12CCC3(C(C)C)C1=C1C(CC4C5(C)CCC(OC(C)=O)C(C)(C)C5CCC4(C)C1(C)CC2)n1c(=O)n(-c2ccc4c(c2)CCC4)c(=O)n13 (stereo not shown) [Compound 36],5.8±0.7,7.9±2.2,62.0±1.9%,6.1±1.7,14.5±1.3,10.7±4.8,2.6±2.1
CC(=O)OCC12CCC3(C(C)C)C1=C1C(CC4C5(C)CCC(OC(C)=O)C(C)(C)C5CCC4(C)C1(C)CC2)n1c(=O)n(-c2ccc(F)cc2)c(=O)n13 (stereo not shown) [Compound 37],4.6±0.7,0.8±3.4,48.2±7.7%,6.5±0.9,17.7±2.2,11.7±9.0,5.0±8.8
CC(=O)OCC12CCC3(C(C)C)C1=C1C(CC4C5(C)CCC(OC(C)=O)C(C)(C)C5CCC4(C)C1(C)CC2)n1c(=O)n(-c2cccc(Cl)c2)c(=O)n13 (stereo not shown) [Compound 39],2.6±1.1,1.5±2.7,69.1±4.9%,5.7±0.8,19.0±1.9,4.8±13.6,4.4±2.7
CC(=O)OCC12CCC3(C(C)C)C1=C1C(CC4C5(C)CCC(OC(C)=O)C(C)(C)C5CCC4(C)C1(C)CC2)n1c(=O)n(Cc2ccccc2)c(=O)n13 (stereo not shown) [Compound 40],1.7±0.6,2.3±2.2,66.0±1.5%,4.1±1.1,15.1±3.4,4.4±10.5,-0.8±2.3
CC(=O)OCC12CCC3(C(C)C)C1=C1C(CC4C5(C)CCC(OC(C)=O)C(C)(C)C5CCC4(C)C1(C)CC2)n1c(=O)n(-c2ccccc2)c(=O)n13 (stereo not shown) [Compound 41],1.3±0.4,1.3±4.4,52.4±7.2%,12.7±1.6,18.6±5.6,15.0±14.3,7.1±1.0
CCCCn1c(=O)n2n(c1=O)C1(C(C)C)CCC3(COC(C)=O)CCC4(C)C(=C31)C2CC1C2(C)CCC(OC(C)=O)C(C)(C)C2CCC14C (stereo not shown) [Compound 42],1.0±0.4,-8.3±1.3,67.5±3.7%,1.5±1.0,10.6±3.5,-12.0±11.8,1.7±5.2
CC(C)C12CCC3(CO)CCC4(C)C(=C31)C(CC1C3(C)CCC(O)C(C)(C)C3CCC14C)n1c(=O)n(-c3ccccc3)c(=O)n12 (stereo not shown) [Compound 44],3.3±1.1,2.8±5.3,57.1±7.1%,5.7±2.2,11.7±1.1,-25.4±8.0,-1.0±0.3
CCC(=O)OCC12CCC3(C(C)C)C1=C1C(CC4C5(C)CCC(OC(=O)CC)C(C)(C)C5CCC4(C)C1(C)CC2)n1c(=O)n(C)c(=O)n13 (stereo not shown) [Compound 45],3.7±1.2,11.1±5.1,41.6±2.8%,0.7±3.8,10.8±6.9,-30.7±19.4,-4.3±7.0
CCCC(=O)OCC12CCC3(C(C)C)C1=C1C(CC4C5(C)CCC(OC(=O)CCC)C(C)(C)C5CCC4(C)C1(C)CC2)n1c(=O)n(C)c(=O)n13 (stereo not shown) [Compound 46],5.2±0.7,6.4±2.9,44.8±2.8%,2.5±3.1,7.4±5.9,-56.1±14.6,-2.1±6.4
CC(C)C(=O)OCC12CCC3(C(C)C)C1=C1C(CC4C5(C)CCC(OC(=O)C(C)C)C(C)(C)C5CCC4(C)C1(C)CC2)n1c(=O)n(C)c(=O)n13 (stereo not shown) [Compound 47],1.4±0.8,-4.9±2.2,47.8±1.3%,2.9±1.0,9.6±1.7,12.0±12.7,-3.8±4.2
CC(C)C12CCC3(COC(=O)C4CCCCC4)CCC4(C)C(=C31)C(CC1C3(C)CCC(OC(=O)C5CCCCC5)C(C)(C)C3CCC14C)n1c(=O)n(C)c(=O)n12 (stereo not shown) [Compound 48],7.1±1.7,-10.8±1.9,56.3±1.8%,5.0±4.2,12.1±2.2,-39.6±25.9,-5.5±1.9
